The species entered for experiment [1] is Mus musculus. As to the kind of experiment: Effect on central nervous system in mouse assessed as prolongation of anesthesia. The experiment is classed as functional.
The species entered for experiment [2] is Mus musculus. As to the kind of experiment: Effect on central nervous system in mouse assessed as tranquilizing activity. The experiment is classed as functional, organism-based.
The species named for experiment [3] is Mus musculus. As to the kind of experiment: Effect on central nervous system in mouse assessed as muscle relaxant activity. In kind it is functional, organism-based.
The species entered for a further experiment is Oryctolagus cuniculus. Put plainly: Effect on central nervous system in rabbit assessed as depression. In kind it is functional, organism-based.

As usually defined, the LD50 is the dose expected to kill half of the subjects tested.

Activity calls are given as the source filed them. The rule behind the calls is not given here.

For `COc1cc(C[C@@H]2COC(=O)[C@@]2(O)Cc2ccc(O)c(OC)c2)ccc1O` [WIKSTROMOL], the LD50 in the experiment filed under Mus musculus [1] amounted to 65 mg/kg. Moreover, the result in the experiment filed under Mus musculus [2] and in the experiment listed under Mus musculus [3] was inactive. Besides, the outcome in the experiment filed under Oryctolagus cuniculus was Active.

Source of the values: ChEMBL document CHEMBL1158149, “(+)-Nortrachelogenin, a new pharmacologically active lignan from Wikstroemia indica” (1979).
